# Assay results published in PubChem BioAssay (NCI).
#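 Method: 48-hour compound exposure of cells in 96-well plates, five concentrations, linear interpolation of endpoints. Abbreviation: GI50, concentration required for 50% inhibition of growth. TGI marks complete inhibition of growth.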
# Test system: RPMI-8226 leukemia
# Assay: growth of human tumour cells (NCI), 48 h
SMILES,GI50 [µM],TGI [µM]
COc1ccc(/C=C2/N=C(c3ccccc3)N(c3c(C)n(C)n(-c4ccccc4)c3=O)C2=O)cc1OC,> 100,> 100
C[C@@H]1CC[C@@H]2[C@@H]1[C@H](OC(=O)/C=C/c1ccccc1)[C@]1(C3CCCCC3)C[C@@H](OC(=O)CO)[C@@]2(C)O1,2.99,7.49
CCCN1C(=O)N(CCC)C2C1NC(=S)N2/N=C/C=C/c1ccccc1OC (stereo not given),0.69,16.7
CCn1c2ccccc2c2cc(NC(=O)Nc3ccc([N+](=O)[O-])cc3C)ccc21,1.4,4.01
COc1cc2c(c(OC)c1OC)-c1ccc(SC)c(=O)cc1C(NC=O)CC2 (stereo not given),,47.1
COc1cccc2c1C(=O)c1c(O)c3c(c(O)c1C2=O)C[C@](O)(C(=O)CO)C[C@H]3O[C@@H]1C[C@@H](NC(=O)CCCCCN(C)C2(c3ccc(F)cc3)CC3CCC2C3)[C@H](O)[C@@H](C)O1 (stereo not given in full),0.899,2.25
CCSc1ncnc2c1ncn2C1OC(CO)C(O)C1O (stereo not given),4.5,> 100
O=C(CSc1nc2ccccc2nc1-c1ccccc1)Nc1ccc(F)cc1,58.5,> 100
COc1ccc2c(c1)C(=O)c1c-2c(N2CCN(C(=O)CNCCNCCO)CC2)nc2ccccc12,2.04,4.68
O=C1Nc2ccccc2/C1=N\[O-].O=C1Nc2ccccc2/C1=N\[O-].[Cu+2],> 100,> 100
CN1C(=O)N(C)C2C1NN=c1s/c(=C\c3ccc(Cl)cc3Cl)c(=O)n12 (stereo not given),0.364,16.3
Cc1ccc(NC(=O)CC2CC2)cc1-c1ccc(C(=O)NCC2CC2)cc1,> 25,> 25
CCOC(=O)Nc1ccc(C)c(NC(=O)OCC)c1,,> 100
CNCC#Cc1c(F)ccc2c1/C(=C/c1[nH]ccc1OC)C(=O)N2,0.322,1.47
Cn1cc(C2=C(c3cn(CCCCO)c4ccccc34)C(=O)NC2=O)c2ccccc21,9.23,> 25

# Test system: OVCAR-5 ovarian
# Assay: growth of human tumour cells (NCI), 48 h
SMILES,GI50 [µM],TGI [µM]
COc1ccc(/C=C2/N=C(c3ccccc3)N(c3c(C)n(C)n(-c4ccccc4)c3=O)C2=O)cc1OC,> 100,> 100
C[C@@H]1CC[C@@H]2[C@@H]1[C@H](OC(=O)/C=C/c1ccccc1)[C@]1(C3CCCCC3)C[C@@H](OC(=O)CO)[C@@]2(C)O1,1.93,5.59
CCCN1C(=O)N(CCC)C2C1NC(=S)N2/N=C/C=C/c1ccccc1OC (stereo not given),3.61,> 100
CCn1c2ccccc2c2cc(NC(=O)Nc3ccc([N+](=O)[O-])cc3C)ccc21,22.5,> 100
COc1cc2c(c(OC)c1OC)-c1ccc(SC)c(=O)cc1C(NC=O)CC2 (stereo not given),,> 94.3
COc1cccc2c1C(=O)c1c(O)c3c(c(O)c1C2=O)C[C@](O)(C(=O)CO)C[C@H]3O[C@@H]1C[C@@H](NC(=O)CCCCCN(C)C2(c3ccc(F)cc3)CC3CCC2C3)[C@H](O)[C@@H](C)O1 (stereo not given in full),0.988,2.19
CCSc1ncnc2c1ncn2C1OC(CO)C(O)C1O (stereo not given),0.65,> 100
O=C(CSc1nc2ccccc2nc1-c1ccccc1)Nc1ccc(F)cc1,> 100,> 100
COc1ccc2c(c1)C(=O)c1c-2c(N2CCN(C(=O)CNCCNCCO)CC2)nc2ccccc12,15.4,31
O=C1Nc2ccccc2/C1=N\[O-].O=C1Nc2ccccc2/C1=N\[O-].[Cu+2],> 100,> 100
CN1C(=O)N(C)C2C1NN=c1s/c(=C\c3ccc(Cl)cc3Cl)c(=O)n12 (stereo not given),0.601,> 100
Cc1ccc(NC(=O)CC2CC2)cc1-c1ccc(C(=O)NCC2CC2)cc1,> 25,> 25
CCOC(=O)Nc1ccc(C)c(NC(=O)OCC)c1,,> 100
CNCC#Cc1c(F)ccc2c1/C(=C/c1[nH]ccc1OC)C(=O)N2,0.323,3.16
Cn1cc(C2=C(c3cn(CCCCO)c4ccccc34)C(=O)NC2=O)c2ccccc21,13.5,> 25

# Test system: SF-268 CNS
# Assay: growth of human tumour cells (NCI), 48 h
SMILES,GI50 [µM],TGI [µM]
COc1ccc(/C=C2/N=C(c3ccccc3)N(c3c(C)n(C)n(-c4ccccc4)c3=O)C2=O)cc1OC,> 100,> 100
C[C@@H]1CC[C@@H]2[C@@H]1[C@H](OC(=O)/C=C/c1ccccc1)[C@]1(C3CCCCC3)C[C@@H](OC(=O)CO)[C@@]2(C)O1,1.48,9.86
CCCN1C(=O)N(CCC)C2C1NC(=S)N2/N=C/C=C/c1ccccc1OC (stereo not given),1.15,53.4
CCn1c2ccccc2c2cc(NC(=O)Nc3ccc([N+](=O)[O-])cc3C)ccc21,12.2,> 100
COc1cc2c(c(OC)c1OC)-c1ccc(SC)c(=O)cc1C(NC=O)CC2 (stereo not given),,> 100
COc1cccc2c1C(=O)c1c(O)c3c(c(O)c1C2=O)C[C@](O)(C(=O)CO)C[C@H]3O[C@@H]1C[C@@H](NC(=O)CCCCCN(C)C2(c3ccc(F)cc3)CC3CCC2C3)[C@H](O)[C@@H](C)O1 (stereo not given in full),5.38,14.9
CCSc1ncnc2c1ncn2C1OC(CO)C(O)C1O (stereo not given),1.02,> 100
O=C(CSc1nc2ccccc2nc1-c1ccccc1)Nc1ccc(F)cc1,41.6,> 100
COc1ccc2c(c1)C(=O)c1c-2c(N2CCN(C(=O)CNCCNCCO)CC2)nc2ccccc12,2.97,9.38
O=C1Nc2ccccc2/C1=N\[O-].O=C1Nc2ccccc2/C1=N\[O-].[Cu+2],> 100,> 100
CN1C(=O)N(C)C2C1NN=c1s/c(=C\c3ccc(Cl)cc3Cl)c(=O)n12 (stereo not given),1.66,> 100
Cc1ccc(NC(=O)CC2CC2)cc1-c1ccc(C(=O)NCC2CC2)cc1,> 25,> 25
CCOC(=O)Nc1ccc(C)c(NC(=O)OCC)c1,,> 100
CNCC#Cc1c(F)ccc2c1/C(=C/c1[nH]ccc1OC)C(=O)N2,0.279,2.1
Cn1cc(C2=C(c3cn(CCCCO)c4ccccc34)C(=O)NC2=O)c2ccccc21,8.63,> 25

# Test system: CAKI-1 renal
# Assay: growth of human tumour cells (NCI), 48 h
SMILES,GI50 [µM],TGI [µM]
COc1ccc(/C=C2/N=C(c3ccccc3)N(c3c(C)n(C)n(-c4ccccc4)c3=O)C2=O)cc1OC,37.1,> 100
C[C@@H]1CC[C@@H]2[C@@H]1[C@H](OC(=O)/C=C/c1ccccc1)[C@]1(C3CCCCC3)C[C@@H](OC(=O)CO)[C@@]2(C)O1,0.0347,11
CCCN1C(=O)N(CCC)C2C1NC(=S)N2/N=C/C=C/c1ccccc1OC (stereo not given),0.508,97.5
CCn1c2ccccc2c2cc(NC(=O)Nc3ccc([N+](=O)[O-])cc3C)ccc21,4.35,17.5
COc1cc2c(c(OC)c1OC)-c1ccc(SC)c(=O)cc1C(NC=O)CC2 (stereo not given),,> 83
COc1cccc2c1C(=O)c1c(O)c3c(c(O)c1C2=O)C[C@](O)(C(=O)CO)C[C@H]3O[C@@H]1C[C@@H](NC(=O)CCCCCN(C)C2(c3ccc(F)cc3)CC3CCC2C3)[C@H](O)[C@@H](C)O1 (stereo not given in full),6.82,13.3
CCSc1ncnc2c1ncn2C1OC(CO)C(O)C1O (stereo not given),0.272,> 55.4
O=C(CSc1nc2ccccc2nc1-c1ccccc1)Nc1ccc(F)cc1,> 100,> 100
COc1ccc2c(c1)C(=O)c1c-2c(N2CCN(C(=O)CNCCNCCO)CC2)nc2ccccc12,12.8,35
O=C1Nc2ccccc2/C1=N\[O-].O=C1Nc2ccccc2/C1=N\[O-].[Cu+2],> 100,> 100
CN1C(=O)N(C)C2C1NN=c1s/c(=C\c3ccc(Cl)cc3Cl)c(=O)n12 (stereo not given),0.0608,> 62.3
Cc1ccc(NC(=O)CC2CC2)cc1-c1ccc(C(=O)NCC2CC2)cc1,> 25,> 25
CCOC(=O)Nc1ccc(C)c(NC(=O)OCC)c1,,> 100
CNCC#Cc1c(F)ccc2c1/C(=C/c1[nH]ccc1OC)C(=O)N2,0.0238,0.521
Cn1cc(C2=C(c3cn(CCCCO)c4ccccc34)C(=O)NC2=O)c2ccccc21,11.8,> 25

# Test system: DU-145 prostate
# Assay: growth of human tumour cells (NCI), 48 h
SMILES,GI50 [µM],TGI [µM]
COc1ccc(/C=C2/N=C(c3ccccc3)N(c3c(C)n(C)n(-c4ccccc4)c3=O)C2=O)cc1OC,> 100,> 100
C[C@@H]1CC[C@@H]2[C@@H]1[C@H](OC(=O)/C=C/c1ccccc1)[C@]1(C3CCCCC3)C[C@@H](OC(=O)CO)[C@@]2(C)O1,3.99,14.7
CCCN1C(=O)N(CCC)C2C1NC(=S)N2/N=C/C=C/c1ccccc1OC (stereo not given),0.557,> 100
CCn1c2ccccc2c2cc(NC(=O)Nc3ccc([N+](=O)[O-])cc3C)ccc21,5.38,> 100
COc1cc2c(c(OC)c1OC)-c1ccc(SC)c(=O)cc1C(NC=O)CC2 (stereo not given),,< 0.01
COc1cccc2c1C(=O)c1c(O)c3c(c(O)c1C2=O)C[C@](O)(C(=O)CO)C[C@H]3O[C@@H]1C[C@@H](NC(=O)CCCCCN(C)C2(c3ccc(F)cc3)CC3CCC2C3)[C@H](O)[C@@H](C)O1 (stereo not given in full),1.13,4.24
CCSc1ncnc2c1ncn2C1OC(CO)C(O)C1O (stereo not given),0.129,32.5
O=C(CSc1nc2ccccc2nc1-c1ccccc1)Nc1ccc(F)cc1,51,> 100
COc1ccc2c(c1)C(=O)c1c-2c(N2CCN(C(=O)CNCCNCCO)CC2)nc2ccccc12,6.17,18.4
O=C1Nc2ccccc2/C1=N\[O-].O=C1Nc2ccccc2/C1=N\[O-].[Cu+2],> 100,> 100
CN1C(=O)N(C)C2C1NN=c1s/c(=C\c3ccc(Cl)cc3Cl)c(=O)n12 (stereo not given),0.334,> 20.5
Cc1ccc(NC(=O)CC2CC2)cc1-c1ccc(C(=O)NCC2CC2)cc1,> 25,> 25
CCOC(=O)Nc1ccc(C)c(NC(=O)OCC)c1,,> 100
CNCC#Cc1c(F)ccc2c1/C(=C/c1[nH]ccc1OC)C(=O)N2,0.136,2.92
Cn1cc(C2=C(c3cn(CCCCO)c4ccccc34)C(=O)NC2=O)c2ccccc21,10,> 25
